Each structure is given as a SMILES string.

3 compounds from patent US20260356860A1, “2-SUBSTITUTED 3,4A,5,7,8,8A-HEXAHYDRO-4H-THIOPYRANO[4,3-DJPYRIMIDIN-4-ONES FOR WOUND TREATMENT” (priority 2022, published 2026) can be followed below.

Test [1] concerns full thickness open excisional wounds. The test is described as follows: Full thickness open excisional wound healing study. In kind it is in vivo, Yucatan Miniature Swine. The conditions noted are these: day 3 to day 22. The procedure: A 21-day full thickness open excisional wound healing study was conducted on Yucatan™ Miniature Swine (Sinclair BioResources, Auxvasse, Missouri, USA) to evaluate the efficacy of healing and local tissue reaction of compounds of Formula (I). Compounds and controls were topically administered on full thickness open excisional wounds once every other day (total 11 doses).
The negative control for this study was saline (0.9%). The tes compositions for these studies are described as follows.
The test composition in the full thickness open excisional wound studies for compounds without GO-HA (no GO-HA added) was a mixture with an overall concentration of 0.25 to 0.27 mg/mL of the respective compound in serum formulation as follows: compound (10 mg), butylene glycol (1.80 mL), polysorbate 20 (1.80 mL), phosphatidyl choline (0.44 g), ethanol (1.80 mL), ultra pure water (30 mL), and hydroxypropyl cellulose (0.285 g).
The test composition in the full thickness open excisional wounds studies for compounds with GO-HA (Compound+GO-HA) was a mixture with an overall concentration of 1.0 mg/mL of the respective compound and 1.0 mg/mL of GO-HA in serum formulation as follows: compound (35 mg), butylene glycol (1.8 mL), polysorbate 20 (1.8 mL), phosphotidyl choline (0.44 g), ethanol (1.8 mL), GO-HA (35 mg), ultra pure water (30 mL), and hydroxypropyl cellulose (0.285 g). […]

Test [2] has as its system Full-thickness, 3rd degree burn wounds. The test is described as follows: 3rd degree burn wound healing study (60-day). In kind it is in vivo, Yucatan minipig. The conditions noted are these: for burn wound healing rate versus saline control: about day 16 to day 30; for burn wound histology (H&E) versus saline and GO-HA: improved organized reticular collagen and rete ridge formation. The procedure:
The test composition in the closed excisional wound and burn studies for compounds without GO-HA (no GO-HA added) was a mixture with an overall concentration of 0.20 to 0.25 mg/mL of the respective compound in serum formulation as follows: compound (4 mg), butylene glycol (0.80 mL), polysorbate 20 (0.40 mL), ultra pure water (18 mL), and hydroxypropyl cellulose (0.12 g).
The test composition in the closed excisional wound and burn studies for compounds with GO-HA (Compound+GO-HA) was a mixture with an overall concentration of 1.0 mg/mL of the respective compound and 0.5 mg/mL of GO-HA in serum formulation as follows: compound (18 mg), PEG 400 (0.8 mL), GO-HA (9 mg), ultra pure water (18 mL), and hydroxypropyl cellulose (0.12 g).
Full-thickness 60-day burn wound healing study. Full-thickness, 3rd degree burn wounds of 3×3 cm^2 size were created on the back of the Yucatan minipig (5 wounds on each side of the spine, 10 total per swine) by using a brass cylinder (circular cross-section, 3 cm diameter) that was preheated in an oven at 100° C. and applied to the dorsal skin with light pressure for 30 seconds. Debridement of the wounds occurred day 7 post-dose. Compounds were dosed topically three times a week (0.24 mL) for thirty days. At 30 day time-point, the wounds were photographed once a week and NO dosing of compounds conducted from day 31-60. On day 60 animals were sacrificed and tissue prepared for analysis.

Another test deals with 8 mm ear punch wound. The test is described as follows: Rabbit ear punch: rate of ear closure. In kind it is in vivo. As to conditions: after day 4; phospholipid spray. The procedure: (§1) Compounds of Formula (I) were tested and compared to saline control in elastic cartilage regeneration tests. Rabbit ears were punched through and through with an 8 mm punch. 4 holes were punched in each ear of the specimen (four positions L1, L2, L3, and L4 in the left ear and four positions R5, R6, R7, and R8 in right ear). Saline was applied via a spray on the control specimen, Compound 8 was applied via a phospholipid spray on another specimen, and Compound 18 was applied via a phospholipid spray on yet another specimen. The phospholipid spray contained compound (45 mg), butylene glycol (2 mL), polysorbate 20 (2 mL), phosphotidyl choline (0.5 g), ethanol (2 mL), and ultra pure water (40 mL).
FIG. 4 provides photographs of the wounds after treatment with saline, compound 8, or compound 18 on Days 0 and 23. Ear punch area related to wound closure was measured at 2- to 3-day intervals from day 0 to day 39.

For a further test, the system named is elastic cartilage. The test is described as follows: Elastic cartilage regeneration in rabbit ear punch wounds (stained cross sections, day 45). As to conditions: for average distance between opposing cartilage endplates: original 8 mm wound margin, saline 6 mm; for average cartilage growth upon closure of the wound: saline 2 mm; for average cartilage tissue regrowth: saline about 25%; for cartilage regeneration by histology: versus control. In kind it is in vivo. The procedure:
as §1
At day 45, the tests were stopped and the tissue was processed. An embed cut was made across the center point of the healed wounds in each site (FIG. 7, top). A slide was used to obtain sectioned tissue sample for staining and imaging (FIG. 7, bottom).
After staining with either Safronin O or Trichrome Blue, the distance between the opposing cartilage endplates was measured. From the original 8 mm wound margin distance, the saline control averaged 6 mm of distance between opposing cartilage endplates (FIG. 8), or 2 mm of average cartilage growth upon closure of the wound (about 25% average cartilage tissue regrowth). Compounds of Formula (I) (Compound 8 and Compound 18) provided about 2-3 mm average distance between opposing cartilage endplates (FIG. 8), or […] of average cartilage growth upon closure of the wound (about 68-75% average cartilage tissue regrowth).
FIGS. 9-11 display the original 8 mm wound margin (top, two vertical gray lines) and in an inset (bottom left, curved gray line). FIGS. 9-11 show expanded views of the cartilage regeneration site where chondrocytes are newly formed within the wound margin. Comparing FIG. 10 (Compound 8) and FIG. 11 (Compound 18) to FIG. 9 (control), cartilage regeneration using compounds of Formula (I) was confirmed.

For `O=c1[nH]c(-c2ccc(-c3ccc(Br)nc3)cc2)nc2c1CSCC2` [Compound 7, 2-(4-(6-bromopyridin-3-yl)phenyl)-3,5,7,8-tetrahydro-4H-thiopyrano [4,3-d]pyrimidin-4-one], the “wound healing throughout the entire test” value in test [1] is listed as “improved wound healing throughout the entire test”. Moreover, in test [2], the “burn wound healing rate versus saline control” value is “statistically significant improved burn wound healing rates”; the “burn wound histology (H&E) versus saline and GO-HA” value was “promoted regeneration of tissue (improved organized reticular collagen and rete ridge formation) and reduced scar formation”.

Regarding `CC(C)(OCCO)c1ccc(-c2nc3c(c(=O)[nH]2)CSCC3)cc1` [Compound 8, 2-(4-(2-(2-hydroxyethoxy)propan-2-yl)phenyl)-3,5,7,8-tetrahydro-4H-thiopyrano[4,3-d]pyrimidin-4-one], the “rate of ear closure versus control” value in the test on 8 mm ear punch wound is on record as “improved the rate of ear closure over the control”. Further, in the test with elastic cartilage, the “average distance between opposing cartilage endplates” value is reported as 2-3 mm; the “average cartilage growth upon closure of the wound” value is on record as 5.5-6 mm; the “average cartilage tissue regrowth” value is reported as 68-75%; the “cartilage regeneration by histology” value was “newly formed chondrocytes are more numerous and larger than in the control”. For the same compound, the “wound healing throughout the entire test” value in test [1] was “improved wound healing throughout the entire test”. In addition, in test [2], the “burn wound healing rate versus saline control” value was “statistically significant improved burn wound healing rates”; the “burn wound histology (H&E) versus saline and GO-HA” value is “promoted regeneration of tissue (improved organized reticular collagen and rete ridge formation) and reduced scar formation”.

Take `COC(=O)NCCOC(C)(C)c1ccc(-c2nc3c(c(=O)[nH]2)CSCC3)cc1` [Compound 18, methyl (2-((2-(4-(4-oxo-3,5,7,8-tetrahydro-4H-thiopyrano[4,3-d]pyrimidin-2-yl)phenyl)propan-2-yl)oxy)ethyl)carbamate]: the “rate of ear closure versus control” value with 8 mm ear punch wound is on record as “improved the rate of ear closure over the control”. For the same compound, in the test with elastic cartilage, the “average distance between opposing cartilage endplates” value is recorded as 2-3 mm; the “average cartilage growth upon closure of the wound” value was 5.5-6 mm; the “average cartilage tissue regrowth” value is given as 68-75%; the “cartilage regeneration by histology” value was “newly formed chondrocytes are more numerous and larger than in the control”.
